Laboratory results as given in PubChem BioAssay (NCI).
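Values below derive from 48-hour exposures of cells grown in 96-well plates, with endpoints linearly interpolated between the two concentrations bracketing the appropriate inhibition level. TGI: concentration producing complete growth inhibition.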

Columns and labels:
Experiment in all cases: inhibition of tumour cell growth, NCI panel, 48 h
786-0 renal = test system: 786-0 renal
A549 NSCLC = test system: A549 NSCLC
ACHN renal = test system: ACHN renal
CCRF-CEM leukemia = test system: CCRF-CEM leukemia
COLO 205 colon = test system: COLO 205 colon
DLD-1 colon = test system: DLD-1 colon
DMS 273 small cell lung = test system: DMS 273 small cell lung
EKVX NSCLC = test system: EKVX NSCLC
HCC-2998 colon = test system: HCC-2998 colon
HCT-116 colon = test system: HCT-116 colon
HCT-15 colon = test system: HCT-15 colon
HL-60(TB) leukemia = test system: HL-60(TB) leukemia
HOP-62 NSCLC = test system: HOP-62 NSCLC
HOP-92 NSCLC = test system: HOP-92 NSCLC
HT29 colon = test system: HT29 colon
IGROV1 ovarian = test system: IGROV1 ovarian
K-562 leukemia = test system: K-562 leukemia
KM12 colon = test system: KM12 colon
KM20L2 colon = test system: KM20L2 colon
LOX IMVI melanoma = test system: LOX IMVI melanoma
LXFL 529 NSCLC = test system: LXFL 529 NSCLC
M14 melanoma = test system: M14 melanoma
M19-MEL melanoma = test system: M19-MEL melanoma
MALME-3M melanoma = test system: MALME-3M melanoma
MOLT-4 leukemia = test system: MOLT-4 leukemia
NCI-H226 lung = test system: NCI-H226 lung
NCI-H23 lung = test system: NCI-H23 lung
NCI-H460 lung = test system: NCI-H460 lung
NCI-H522 lung = test system: NCI-H522 lung
OVCAR-3 ovarian = test system: OVCAR-3 ovarian
OVCAR-4 ovarian = test system: OVCAR-4 ovarian
OVCAR-8 ovarian = test system: OVCAR-8 ovarian
RXF 393 renal = test system: RXF 393 renal
SF-268 CNS = test system: SF-268 CNS
SF-295 CNS = test system: SF-295 CNS
SF-539 CNS = test system: SF-539 CNS
SK-MEL-2 melanoma = test system: SK-MEL-2 melanoma
SK-MEL-28 melanoma = test system: SK-MEL-28 melanoma
SK-MEL-5 melanoma = test system: SK-MEL-5 melanoma
SK-OV-3 ovarian = test system: SK-OV-3 ovarian
SN12C renal = test system: SN12C renal
SNB-19 CNS = test system: SNB-19 CNS
SNB-75 CNS = test system: SNB-75 CNS
SNB-78 CNS = test system: SNB-78 CNS
SR leukemia = test system: SR leukemia
SW-620 colon = test system: SW-620 colon
TK-10 renal = test system: TK-10 renal
U251 CNS = test system: U251 CNS
UACC-257 melanoma = test system: UACC-257 melanoma
UACC-62 melanoma = test system: UACC-62 melanoma
UO-31 renal = test system: UO-31 renal
XF 498 CNS = test system: XF 498 CNS
CAKI-1 renal = test system: CAKI-1 renal
DMS 114 small cell lung = test system: DMS 114 small cell lung
OVCAR-5 ovarian = test system: OVCAR-5 ovarian
RPMI-8226 leukemia = test system: RPMI-8226 leukemia

SMILES: CCC(C)n1c(C)nc2c1C(=O)c1ccccc1C2=O (centres undefined)
- TGI (786-0 renal): > 100 µM
- TGI (A549 NSCLC): > 100 µM
- TGI (ACHN renal): > 100 µM
- TGI (CCRF-CEM leukemia): > 100 µM
- TGI (COLO 205 colon): > 100 µM
- TGI (DLD-1 colon): > 100 µM
- TGI (DMS 273 small cell lung): > 100 µM
- TGI (EKVX NSCLC): > 100 µM
- TGI (HCC-2998 colon): > 100 µM
- TGI (HCT-116 colon): > 100 µM
- TGI (HCT-15 colon): > 100 µM
- TGI (HL-60(TB) leukemia): > 100 µM
- TGI (HOP-62 NSCLC): > 100 µM
- TGI (HOP-92 NSCLC): > 100 µM
- TGI (HT29 colon): > 100 µM
- TGI (IGROV1 ovarian): > 100 µM
- TGI (K-562 leukemia): > 100 µM
- TGI (KM12 colon): > 100 µM
- TGI (KM20L2 colon): > 100 µM
- TGI (LOX IMVI melanoma): > 100 µM
- TGI (LXFL 529 NSCLC): > 100 µM
- TGI (M14 melanoma): > 100 µM
- TGI (M19-MEL melanoma): 37.5 µM
- TGI (MALME-3M melanoma): 77.9 µM
- TGI (MOLT-4 leukemia): > 100 µM
- TGI (NCI-H226 lung): > 100 µM
- TGI (NCI-H23 lung): > 100 µM
- TGI (NCI-H460 lung): 50.8 µM
- TGI (NCI-H522 lung): > 100 µM
- TGI (OVCAR-3 ovarian): > 100 µM
- TGI (OVCAR-4 ovarian): > 100 µM
- TGI (OVCAR-8 ovarian): > 100 µM
- TGI (RXF 393 renal): > 100 µM
- TGI (SF-268 CNS): > 100 µM
- TGI (SF-295 CNS): > 100 µM
- TGI (SF-539 CNS): > 100 µM
- TGI (SK-MEL-2 melanoma): > 100 µM
- TGI (SK-MEL-28 melanoma): > 100 µM
- TGI (SK-MEL-5 melanoma): > 100 µM
- TGI (SK-OV-3 ovarian): > 100 µM
- TGI (SN12C renal): > 100 µM
- TGI (SNB-19 CNS): > 100 µM
- TGI (SNB-75 CNS): > 100 µM
- TGI (SNB-78 CNS): > 100 µM
- TGI (SR leukemia): > 100 µM
- TGI (SW-620 colon): > 100 µM
- TGI (TK-10 renal): > 100 µM
- TGI (U251 CNS): > 100 µM
- TGI (UACC-257 melanoma): 93.8 µM
- TGI (UACC-62 melanoma): > 100 µM
- TGI (UO-31 renal): > 100 µM
- TGI (XF 498 CNS): > 100 µM

SMILES: CCOC(=O)Nc1cc2nnc(-c3ccccc3)nc2c(N)n1
- TGI (786-0 renal): 27.1 µM
- TGI (A549 NSCLC): 35.1 µM
- TGI (ACHN renal): > 100 µM
- TGI (CAKI-1 renal): > 100 µM
- TGI (CCRF-CEM leukemia): > 100 µM
- TGI (COLO 205 colon): 40.5 µM
- TGI (DLD-1 colon): > 100 µM
- TGI (DMS 114 small cell lung): > 100 µM
- TGI (EKVX NSCLC): > 100 µM
- TGI (HCC-2998 colon): > 100 µM
- TGI (HCT-116 colon): 38.7 µM
- TGI (HCT-15 colon): > 100 µM
- TGI (HL-60(TB) leukemia): 37.5 µM
- TGI (HOP-62 NSCLC): 37.6 µM
- TGI (HOP-92 NSCLC): 85.2 µM
- TGI (HT29 colon): 25.7 µM
- TGI (IGROV1 ovarian): > 100 µM
- TGI (K-562 leukemia): > 100 µM
- TGI (KM12 colon): > 100 µM
- TGI (KM20L2 colon): 20.4 µM
- TGI (LOX IMVI melanoma): 30.8 µM
- TGI (LXFL 529 NSCLC): > 100 µM
- TGI (M14 melanoma): > 100 µM
- TGI (M19-MEL melanoma): > 100 µM
- TGI (MALME-3M melanoma): 87.7 µM
- TGI (NCI-H226 lung): 71.8 µM
- TGI (NCI-H23 lung): 64.2 µM
- TGI (NCI-H460 lung): 29.8 µM
- TGI (OVCAR-3 ovarian): 48.8 µM
- TGI (OVCAR-4 ovarian): 69.2 µM
- TGI (OVCAR-5 ovarian): 48.5 µM
- TGI (OVCAR-8 ovarian): 76.4 µM
- TGI (RPMI-8226 leukemia): 74.3 µM
- TGI (RXF 393 renal): 53.5 µM
- TGI (SF-268 CNS): > 100 µM
- TGI (SF-295 CNS): 15.2 µM
- TGI (SF-539 CNS): 61.9 µM
- TGI (SK-MEL-2 melanoma): > 100 µM
- TGI (SK-MEL-28 melanoma): > 100 µM
- TGI (SK-MEL-5 melanoma): 35.7 µM
- TGI (SK-OV-3 ovarian): 39.9 µM
- TGI (SN12C renal): > 100 µM
- TGI (SNB-19 CNS): > 100 µM
- TGI (SNB-75 CNS): 61.6 µM
- TGI (SR leukemia): 72.2 µM
- TGI (SW-620 colon): 42.2 µM
- TGI (TK-10 renal): > 100 µM
- TGI (U251 CNS): > 100 µM
- TGI (UACC-257 melanoma): > 100 µM
- TGI (UACC-62 melanoma): > 100 µM
- TGI (UO-31 renal): 84.7 µM
- TGI (XF 498 CNS): > 100 µM
